Source: publication PMC10778704, “Comparative Analysis of Cyclization Techniques in Stapled Peptides: Structural Insights into Protein–Protein Interactions in a SARS-CoV-2 Spike RBD/hACE2 Model System” (International Journal of Molecular Sciences, 2023)
Bridge positions count the residues as written; N and C are the ends. Square brackets hold non-standard residues; d marks the D form. Peptide text beside a SMILES is read from it. S5 = C=CCCC[C@](C)(N)C(=O)O

Tested on: SARS-CoV-2 pseudovirus
Settings: 48 h, 735 μM

| SMILES | Inhibition of the pseudovirus |
| --- | --- |
| CC(=O)N[C@@H](Cc1c[nH]cn1)C(=O)N[C@@H](CCC(=O)O)C(=O)N[C@H]1CCCCNC(=O)C[C@@H](C(=O)N[C@@H](Cc2ccc(O)cc2)C(=O)N[C@@H](CCC(N)=O)C(N)=O)NC(=O)[C@H](CC(C)C)NC(=O)[C@H](CC(=O)O)NC(=O)[C@H](CCC(=O)O)NC1=O [peptide 4, Ac-NH-His-Glu-[Lys-Glu-Asp-Leu-Asp]-Tyr-Gln-CO-NH2] (Ac-HEKEDLDYQ-NH2; lactam 3-7) | 48% |
| CC(=O)N[C@@H](Cc1c[nH]cn1)C(=O)N[C@@H](CCC(=O)O)C(=O)N[C@@]1(C)CCC/C=C/CCC[C@@](C)(C(=O)N[C@@H](Cc2ccc(O)cc2)C(=O)N[C@@H](CCC(N)=O)C(N)=O)NC(=O)[C@H](CC(C)C)NC(=O)[C@H](CC(=O)O)NC(=O)[C@H](CCC(=O)O)NC1=O [peptide 11, Ac-NH-His-Glu-[S5-Glu-Asp-Leu-S5]-Tyr-Gln-CO-NH2] (Ac-HE[S5]EDL[S5]YQ-NH2; staple (E) 3-7) | 68% |
